Measurements reported in PubChem BioAssay (NCI).
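A five-concentration, 48-hour dose response in 96-well plates underlies each endpoint, interpolated linearly between surrounding concentrations. GI50 = concentration required for 50% inhibition of growth. TGI is the concentration that stops growth completely.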

Experiments:
Test in all cases: NCI-60 cell line screen, 48 h; in the data active = GI50 below about 0.43 µM; inactive = the rest
[1] = test system: CAKI-1 renal
[2] = test system: UACC-62 melanoma
[3] = test system: RXF 393 renal
[4] = test system: UACC-257 melanoma
[5] = test system: SR leukemia
[6] = test system: OVCAR-8 ovarian
[7] = test system: A498 renal
[8] = test system: CCRF-CEM leukemia
[9] = test system: DMS 114 small cell lung
[10] = test system: NCI-H522 lung
[11] = test system: U251 CNS
[12] = test system: HT29 colon
[13] = test system: RXF-631 renal
[14] = test system: HCT-116 colon
[15] = test system: MALME-3M melanoma
[16] = test system: SNB-19 CNS
[17] = test system: EKVX NSCLC
[18] = test system: 786-0 renal
[19] = test system: SF-295 CNS
[20] = test system: MOLT-4 leukemia
[21] = test system: K-562 leukemia
[22] = test system: KM12 colon
[23] = test system: COLO 205 colon
[24] = test system: SK-MEL-2 melanoma
[25] = test system: LOX IMVI melanoma
[26] = test system: ACHN renal
[27] = test system: HOP-62 NSCLC
[28] = test system: OVCAR-5 ovarian
[29] = test system: SK-MEL-28 melanoma
[30] = test system: SK-OV-3 ovarian
[31] = test system: HL-60(TB) leukemia
[32] = test system: HOP-18 NSCLC
[33] = test system: HCC-2998 colon
[34] = test system: A549 NSCLC
[35] = test system: UO-31 renal
[36] = test system: DLD-1 colon
[37] = test system: OVCAR-4 ovarian
[38] = test system: TK-10 renal
[39] = test system: RPMI-8226 leukemia
[40] = test system: HOP-92 NSCLC
[41] = test system: OVCAR-3 ovarian
[42] = test system: SW-620 colon
[43] = test system: M14 melanoma
[44] = test system: KM20L2 colon
[45] = test system: M19-MEL melanoma
[46] = test system: SNB-75 CNS
[47] = test system: HCT-15 colon
[48] = test system: LXFL 529 NSCLC
[49] = test system: IGROV1 ovarian
[50] = test system: SNB-78 CNS
[51] = test system: SF-539 CNS
[52] = test system: SF-268 CNS
[53] = test system: NCI-H23 lung
[54] = test system: SK-MEL-5 melanoma
[55] = test system: NCI-H226 lung
[56] = test system: NCI-H460 lung
[57] = test system: DMS 273 small cell lung
[58] = test system: SN12C renal

COC1C=CC(C(=O)[N+]2=Cc3[nH]c4ccccc4c3CC2)O1 (stereo unspecified)
> 100 µM: TGI [1] | TGI [2] | TGI [3] | TGI [4] | TGI [6] | TGI [7] | TGI [9] | TGI [10] | TGI [11] | TGI [12] | TGI [13] | TGI [14] | TGI [15] | TGI [16] | TGI [17] | TGI [18] | TGI [19] | TGI [20] | TGI [21] | TGI [22] | TGI [23] | TGI [24] | TGI [25] | TGI [26] | TGI [27] | TGI [28] | TGI [29] | TGI [30] | TGI [31] | TGI [32] | TGI [33] | TGI [34] | TGI [35] | TGI [36] | TGI [37] | TGI [38] | TGI [39] | TGI [40] | TGI [41] | TGI [42] | TGI [43] | TGI [44] | TGI [45] | TGI [46] | TGI [47] | TGI [48] | TGI [49] | TGI [50] | TGI [51] | TGI [52] | TGI [53] | TGI [54] | TGI [55] | TGI [56] | TGI [57] | TGI [58]
76.6 µM: TGI [8]
82.7 µM: TGI [5]

N.N.N.N.N.N.[I-].[Os]
inactive: GI50 [1] > 100 µM | GI50 [2] > 100 µM | GI50 [3] > 100 µM | GI50 [4] > 100 µM | GI50 [6] > 100 µM | GI50 [7] > 100 µM | GI50 [8] > 100 µM | GI50 [10] > 100 µM | GI50 [11] > 100 µM | GI50 [12] > 100 µM | GI50 [14] > 100 µM | GI50 [15] 38.9 µM | GI50 [16] > 100 µM | GI50 [17] > 100 µM | GI50 [18] > 100 µM | GI50 [19] > 100 µM | GI50 [20] > 100 µM | GI50 [21] > 100 µM | GI50 [22] > 100 µM | GI50 [23] > 100 µM | GI50 [24] > 100 µM | GI50 [25] > 100 µM | GI50 [26] > 100 µM | GI50 [27] > 100 µM | GI50 [28] > 100 µM | GI50 [29] > 100 µM | GI50 [30] > 100 µM | GI50 [31] > 100 µM | GI50 [32] > 100 µM | GI50 [33] > 100 µM | GI50 [34] > 100 µM | GI50 [35] > 100 µM | GI50 [36] > 100 µM | GI50 [37] > 100 µM | GI50 [38] > 100 µM | GI50 [39] > 100 µM | GI50 [40] > 100 µM | GI50 [41] > 100 µM | GI50 [42] > 100 µM | GI50 [43] > 100 µM | GI50 [44] > 100 µM | GI50 [46] > 100 µM | GI50 [47] > 100 µM | GI50 [48] > 100 µM | GI50 [49] > 100 µM | GI50 [50] > 100 µM | GI50 [51] > 100 µM | GI50 [52] > 100 µM | GI50 [53] > 100 µM | GI50 [54] > 100 µM | GI50 [55] > 100 µM | GI50 [56] > 100 µM | GI50 [57] > 100 µM | GI50 [58] > 100 µM
96.5 µM: TGI [15]
> 100 µM: TGI [1] | TGI [2] | TGI [3] | TGI [4] | TGI [6] | TGI [7] | TGI [8] | TGI [10] | TGI [11] | TGI [12] | TGI [14] | TGI [16] | TGI [17] | TGI [18] | TGI [19] | TGI [20] | TGI [21] | TGI [22] | TGI [23] | TGI [24] | TGI [25] | TGI [26] | TGI [27] | TGI [28] | TGI [29] | TGI [30] | TGI [31] | TGI [32] | TGI [33] | TGI [34] | TGI [35] | TGI [36] | TGI [37] | TGI [38] | TGI [39] | TGI [40] | TGI [41] | TGI [42] | TGI [43] | TGI [44] | TGI [46] | TGI [47] | TGI [48] | TGI [49] | TGI [50] | TGI [51] | TGI [52] | TGI [53] | TGI [54] | TGI [55] | TGI [56] | TGI [57] | TGI [58]
